“Also recorded” adds a separate entry of the source. Where two headings read alike, the source gives them in different places. One block for each compound: values may come before it.
What was measured:
[1] = human, in vivo, po
Method: (§1) The plasma concentrations of luseogliflozin and its metabolites were determined by two separate methods at JCL Bioassay Corp. (Hyogo, Japan). Luseogliflozin, its metabolites and its deuterium-labeled internal standard (luseogliflozin-d5, M2-d5 and M17-d5, Taisho Pharmaceutical Co. Ltd., Japan) were extracted from plasma by solid phase extraction. Extracts were analysed by LC-MS/MS. The lower limit of quantification (LLOQ) for luseogliflozin and its metabolites (M2 and M17) in plasma were 0.05 and 0.1 ng/mL, respectively. […] Extracts were analysed by LC-MS/MS. […] Summary statistics were provided for the pharmacokinetic parameters by treatment group.

[2] = test system: healthy Japanese subjects; experiment: Thorough QT/QTc study: 12-lead ECG assessment of QTcF/QTcB; type: in vivo, human; conditions: for Least squares mean ΔΔQTcF: moxifloxacin 400 mg single dose; for Upper bound of the 90% two-sided CI of the least squares mean ΔΔQTcB: all time points, data not shown; for Upper bound of the 90% two-sided CI for the least squares mean ΔΔQTcF: single dose, all time points 0.5-24 h post-dose
Method: The study was conducted at Kitasato Institute Hospital (Tokyo, Japan) from July 6th 2011 to September 15th 2011. […] All treatments were administered with 200 mL of water after at least 10-hour overnight fast, and no food was allowed until 4 hours after dosing. All treatments were administered in a randomized sequence. The random assignment manager randomly assigned treatment groups using the Williams Design to determine the order of treatments within each treatment sequence by the time of study drug administration to the first admission group. A randomization code was created for each treatment sequence sealed and securely retained until unblinding and were provided to the sponsor after unblinding.
Serial triplicate digital 12-lead electrocardiograms (ECGs) were recorded over 5 min in the supine position after resting for 10 min for each time point (pre-dose [50–70 min before dosing], 0.5, 1, 2, 3, 4, 6, 8, and 24 h post-dose) using an electrocardiograph (ELI250, Mortara). The same model of 12-lead digital surface ECG monitor was employed for all subjects at all time points. The same lead was used throughout the study. The interval between the start of each recording was ≥1 min, and ECG was recorded for 10 s for each chart. All 12-lead ECG charts for QT/QTc analysis were sent electronically to the central ECG analysis facility. RR and QT intervals were measured in accordance with the procedures of the facility. The time of recording and subject identification information were blinded before measurement. QTc intervals were corrected by Fridericia’s (QTcF = QT/RR^1/3) and Bazett’s (QTcB = QT/RR^1/2) formulae. QTcF was the primary endpoint, and QTcB was the secondary endpoint.
Treatment comparisons between luseogliflozin therapeutic dose or supratherapeutic dose and placebo (ΔΔQTc) were analyzed using a linear mixed model with treatment, sequence, period, scheduled time, and the interaction of treatment with scheduled time as fixed effects, subject as a random effect, and baseline QTc as a covariate. The effect of luseogliflozin on QT/QTc interval prolongation was regarded as negative when the upper bound of the 90% two-sided confidence interval (CI) for the mean effect on the QT/QTc interval […] 10 ms at all time points in the luseogliflozin groups.
A categorical analysis was also performed. New onset of QTc greater than 450, 480, or 500 ms after dosing or change from baseline in QTc greater than 30 or 60 ms was categorized in each treatment group.

[3] = test system: healthy Japanese subjects; experiment: Safety assessment (adverse events, vital signs, ECG, laboratory tests); type: in vivo, human; conditions: for Tolerability: single dose of luseogliflozin 5 mg and 20 mg
From the text: Safety assessments included recording of adverse events, vital signs (body temperature, blood pressure, and pulse rate), physical examinations, ECGs, and clinical laboratory tests.

[4] = clinical; conditions: human, in vivo, po
Method: as §1

[5] = test system: human ether-a-go-go-related gene (hERG) current; experiment: hERG current in hERG-transfected HEK293 cells in vitro; type: cell-based; conditions: versus Cmax of a 5 mg dose in diabetic subjects in a clinical study
From the text: In non-clinical studies, effects of luseogliflozin on the cardiovascular system were investigated via the human ether-a-go-go-related gene (hERG) current in hERG-transfected human embryonic kidney cells (HEK293 cells) in vitro; action potential in the papillary muscle of anesthetized guinea pigs; and blood pressure, heart rate, and electrocardiogram (ECG) in conscious beagle dogs.

[6] = test system: human ether-a-go-go-related gene (hERG) current; conditions: at 9.6 μmol/L; non-clinical study; cited from earlier work
[7] = test system: papillary muscle of anesthetized guinea pigs; conditions: non-clinical study; cited from earlier work
[8] = test system: conscious beagle dogs; conditions: non-clinical study; cited from earlier work
[9] = cited from earlier work
[10] = test system: Japanese patients with type 2 diabetes mellitus; conditions: cited from earlier work
[11] = test system: SGLT2; conditions: read-out: 50% inhibitory concentration (IC50); SGLT2, human expressing cells, nonclinical study; cited from earlier work
[12] = test system: SGLT1; conditions: read-out: 50% inhibitory concentration (IC50); SGLT1, human expressing cells, nonclinical study; cited from earlier work
[13] = test system: rats; conditions: 26-week repeated dose; cited from earlier work
[14] = test system: dogs; conditions: 52-week repeated dose; cited from earlier work
[15] = luseogliflozin 20 mg (supratherapeutic dose)
[16] = TS-071 25 mg single oral dose, healthy adult males, ref Investigator's Brochure of TS-071 (Version 6)

AUCinf ([1]; 5 mg): 257 ± 48.3 ng·h/mL
Cmax ([1]; 5 mg): 8.85 ± 1.95 ng/mL
T1/2 ([1]; 5 mg): 13.8 ± 2.61 h
Tmax ([1]; 5 mg): 5.71 ± 2.14 h
AUCinf ([1]; 20 mg): 1030 ± 212 ng·h/mL
Cmax ([1]; 20 mg): 35.1 ± 7.36 ng/mL
T1/2 ([1]; 20 mg): 13.9 ± 2.53 h
Tmax ([1]; 20 mg): 5.83 ± 1.90 h
SMILES: COc1cc(C)c(Cc2ccc(O)cc2)cc1[C@@H]1S[C@H](CO)[C@@H](O)[C@H](O)[C@H]1O [M2]

Tmax ([1]; 400 mg): 2.19 ± 1.09 h
AUC(0-inf) ([4]; 400 mg): 60000 ± 11100 ng·h/mL
Cmax ([4]; 400 mg): 3880 ± 939 ng/mL
Tmax ([4]; 400 mg): 2.2 h
SMILES: COc1c(N2C[C@@H]3CCCN[C@@H]3C2)c(F)cc2c(=O)c(C(=O)O)cn(C3CC3)c12 [Moxifloxacin, moxifloxacin, reference compound]
Correlation between ΔΔQTcF and plasma concentration of unchanged compound ([2]; moxifloxacin 400 mg): positive relationship; also recorded: positive correlation
Hysteresis of mean ΔΔQTcF versus mean plasma concentration ([2]; moxifloxacin 400 mg): counter-clockwise hysteresis effect; also recorded: counterclockwise hysteresis
Least squares mean ΔΔQTcF ([2]; 3 and 4 hour post-dose): 13.4 ms
Least squares mean ΔΔQTcF ([2]; 24 h post-dose): 7.7 ms
Number (%) of Subjects, QTcF Increase >30 ms from baseline ([2]; moxifloxacin 400 mg, n = 54): 0 (0.0) n (%)
Number (%) of Subjects, QTcF Increase >60 ms from baseline ([2]; moxifloxacin 400 mg, n = 54): 0 (0.0) n (%)
Number (%) of Subjects, QTcF Value >450 ms ([2]; moxifloxacin 400 mg, n = 54): 7 (13.0) n (%)
Number (%) of Subjects, QTcF Value >480 ms ([2]; moxifloxacin 400 mg, n = 54): 0 (0.0) n (%)
Number (%) of Subjects, QTcF Value >500 ms ([2]; moxifloxacin 400 mg, n = 54): 0 (0.0) n (%)
Number (%) of Subjects, QTcF Value >450 ms ([2]; moxifloxacin 400 mg, n = 54, listed as moxifloxacin): 7 n (%)
Regression of ΔΔQTcF (msec) on plasma concentration (μg/mL) ([2]; moxifloxacin 400 mg, text in Fig 6): ΔΔQTcF = 3.42+3.03xConc.
Percentage of subjects with an adverse event ([3]; moxifloxacin 400 mg group): 72.2%
AEs, n (number of events) ([3]; moxifloxacin 400 mg, n = 54): 56 n
Drug-related AEs, n (number of events) ([3]; moxifloxacin 400 mg, n = 54): 36 n

AUCinf ([1]; 5 mg): 120 ± 41.9 ng·h/mL
Cmax ([1]; 5 mg): 6.02 ± 2.10 ng/mL
T1/2 ([1]; 5 mg): 10.9 ± 1.49 h
Tmax ([1]; 5 mg): 4.89 ± 1.14 h
AUCinf ([1]; 20 mg): 487 ± 196 ng·h/mL
Cmax ([1]; 20 mg): 24.3 ± 9.98 ng/mL
T1/2 ([1]; 20 mg): 10.9 ± 1.71 h
Tmax ([1]; 20 mg): 5.13 ± 1.14 h
SMILES: COc1cc(C)c(Cc2ccc(OCC(=O)O)cc2)cc1[C@@H]1S[C@H](CO)[C@@H](O)[C@H](O)[C@H]1O [M17]

Tmax ([1]; 5 mg): 1.34 ± 0.935 h
T1/2 ([1]; 20 mg): 9.90 ± 1.22 h
AUC(0-inf) ([4]; 5 mg): 2110 ± 418 ng·h/mL
Cmax ([4]; 5 mg): 209 ± 48.9 ng/mL
half-life ([4]; 5 mg): 10 ± 1.18 h
Tmax ([4]; 5 mg): 1.3 h
AUC(0-inf) ([4]; 20 mg): 8650 ± 1780 ng·h/mL
Cmax ([4]; 20 mg): 787 ± 186 ng/mL
Tmax ([4]; 20 mg): 1.5 ± 0.961 h
SMILES: CCOc1ccc(Cc2cc([C@@H]3S[C@H](CO)[C@@H](O)[C@H](O)[C@H]3O)c(OC)cc2C)cc1 [Luseogliflozin, (1S)-1,5-anhydro-1-[5-(4-ethoxybenzyl)-2-methoxy-4-methylphenyl]-1-thio-D-glucitol]
Upper bound of the 90% two-sided CI of the least squares mean ΔΔQTcB ([2]; luseogliflozin 5 mg (anticipated therapeutic dose)): < 10 ms
Upper bound of the 90% two-sided CI for the least squares mean ΔΔQTcF ([2]; luseogliflozin 5 mg (therapeutic dose)): less than 10 ms
Correlation between ΔΔQTcF and plasma concentration of unchanged compound ([2]; luseogliflozin 5 mg and 20 mg): No meaningful correlation; also recorded: no relationship
Hysteresis of mean ΔΔQTcF versus mean plasma concentration ([2]; luseogliflozin 5 mg and 20 mg): no clear hysteresis effect
Number (%) of Subjects, QTcF Increase >30 ms from baseline ([2]; luseogliflozin 5 mg, n = 56): 0 (0.0) n (%)
Number (%) of Subjects, QTcF Increase >60 ms from baseline ([2]; luseogliflozin 5 mg, n = 56): 0 (0.0) n (%)
Number (%) of Subjects, QTcF Value >450 ms ([2]; luseogliflozin 5 mg, n = 56): 1 (1.8) n (%)
Number (%) of Subjects, QTcF Value >480 ms ([2]; luseogliflozin 5 mg, n = 56): 0 (0.0) n (%)
Number (%) of Subjects, QTcF Value >500 ms ([2]; luseogliflozin 5 mg, n = 56): 0 (0.0) n (%)
Upper bound of the 90% two-sided CI for the least squares mean ΔΔQTcF [2, 15]: less than 10 ms
Upper bound of the 90% two-sided CI of the least squares mean ΔΔQTcB [2, 15]: < 10 ms
Number (%) of Subjects, QTcF Increase >30 ms from baseline ([2]; luseogliflozin 20 mg, n = 53): 0 (0.0) n (%)
Number (%) of Subjects, QTcF Increase >60 ms from baseline ([2]; luseogliflozin 20 mg, n = 53): 0 (0.0) n (%)
Number (%) of Subjects, QTcF Value >450 ms ([2]; luseogliflozin 20 mg, n = 53): 0 (0.0) n (%)
Number (%) of Subjects, QTcF Value >480 ms ([2]; luseogliflozin 20 mg, n = 53): 0 (0.0) n (%)
Number (%) of Subjects, QTcF Value >500 ms ([2]; luseogliflozin 20 mg, n = 53): 0 (0.0) n (%)
Adverse events moderate in severity, number of events ([3]; 5 mg luseogliflozin group): two
Subjects with first-degree atrioventricular block ([3]; 5 mg luseogliflozin group): one
Prolonged PR interval in the subject with first-degree atrioventricular block ([3]; 48 h after administration of luseogliflozin 5 mg, one subject): 452 ms
Relation of cardiovascular adverse events to the study drug ([3]; after administration of luseogliflozin): not related to the study drug
Percentage of subjects with an adverse event ([3]; luseogliflozin 5 mg group): 41.1%
AEs, n (number of events) ([3]; luseogliflozin 5 mg, n = 56): 48 n
Drug-related AEs, n (number of events) ([3]; luseogliflozin 5 mg, n = 56): 20 n
Percentage of subjects with an adverse event ([3]; luseogliflozin 20 mg group): 35.8%
AEs, n (number of events) ([3]; luseogliflozin 20 mg, n = 53): 32 n
Drug-related AEs, n (number of events) ([3]; luseogliflozin 20 mg, n = 53): 16 n
Tolerability [3]: well tolerated
Tolerability ([3]; listed as luseogliflozin): safe and well tolerated
Ratio of hERG test concentration (9.6 μmol/L) to the maximum observed Cmax [5]: approximately 370 times
Suppression of hERG current [6]: 7.7%
Effect on the cardiovascular system [7]: No effect
Effect on the cardiovascular system [8]: No effect
Mean Tmax ([9]; TS-071 15 mg single oral dose, healthy adult males, ref Investigator's Brochure of TS-071 (Version 6)): 1.56 h
Mean T1/2 [9, 16]: 12.6 h
Mean Tmax [9, 16]: 2.25 h
Time to maximum plasma concentration (Tmax) ([9]; single dose 1–25 mg): ≤ 2.25 h
Urinary glucose excretion in comparison to placebo ([10]; 0.5, 1, 2.5 and 5 mg/day, Japanese patients with type 2 diabetes mellitus): significantly increased
Observed Cmax of unchanged TS-071 ([10]; Day 7, 7-day repeated administration of 5 mg, patients with type 2 diabetes): 299 ng/mL
IC50 [11]: 2.26 nM
IC50 [12]: 2900 nM
Dose levels with diarrhoea or soft stools [13]: ≥ 100 mg/kg
No observed adverse effect level [13]: 4 mg/kg
Dose levels with diarrhoea or soft stools [14]: ≥ 10 mg/kg
No observed adverse effect level [14]: 2 mg/kg
